This is an account of results in PMC9811466, “Structural Features Affecting the Interactions and Transportability of LAT1-Targeted Phenylalanine Drug Conjugates” (Molecular Pharmaceutics, 2022).

Data set [1] has as its target T1, hLAT1/4F2hc (Homo sapiens, UniProt Q01650).
T1 construct: Invitrogen (host cells)
As to the kind of experiment: cis-inhibition of [14C]-L-leucine uptake in HEK-hLAT1 cells. Format: cell-based. The note with it: HEK-hLAT1 cells, compounds 1-12. On the procedure:
(§1) In the following experiments, the MCF-7, HEK-hLAT1, and HEK-MOCK cells were cultured, seeded, and preincubated as described above. The HBSS was removed, and the ability of the compounds to inhibit the uptake of a known LAT1 substrate, [^14C]-L-leucine (PerkinElmer, Waltham, MA, USA), was studied by incubating the cells at RT for 10 min in uptake buffer pH 7.4 (250 μL) containing 0.76 μM (0.1 mCi/mL) of [^14C]-L-leucine and 0.025–1800 μM of the studied compound (or HBSS as blank). After incubation, the reaction was stopped with ice-cold HBSS, and the cells were washed two times with ice-cold HBSS. The cells were then lysed with 250 μL of 0.1 M sodium hydroxide, the lysate was mixed with 1.0 mL of Emulsifier safe cocktail (PerkinElmer, Waltham, MA, USA), and the radioactivity was measured with a liquid scintillation counter (MicroBeta^2 counter, PerkinElmer, Waltham, MA, USA). The inhibition of [^14C]-L-leucine in the presence of the studied compounds as compared to the control (HBSS) was calculated as percentages (%).
Using the stably hLAT1/4F2hc expressing cell line, the compounds’ inhibitory efficiencies and uptake kinetics were determined via the cis-inhibition assay and uptake studies, respectively. (Table 1) Cis-inhibition is based on the competition between the ligand and LAT1 substrate [^14C]-L-leucine that results in inhibition of substrate uptake. The competitive uptake with L-leucine is reported as the IC50 value of L-leucine uptake and extent as inhibition percentage (%) at a given concentration.

Data set [2] addresses T2, LAT1 in MCF-7 human breast cancer cells (Homo sapiens, UniProt Q01650).
T2 construct: wild-type MCF-7 human breast cancer cell line; endogenous in cells; host or cells: MCF-7 human breast cancer cells (wild type)
As to the kind of experiment: cis-inhibition of [14C]-L-leucine uptake in MCF-7 cells. Type of data set: cell-based. On the procedure: Cells were cultured in DMEM (Gibco, ThermoFisher Scientific, Waltham, MA, USA) supplemented with L-glutamine (2 mM; ThermoFisher Scientific, Waltham, MA, USA), heat-inactivated fetal bovine serum (10%; Gibco, ThermoFisher Scientific, Waltham, MA, USA), penicillin (50 U/mL)-streptomycin (50 μg/mL) solution (ThermoFisher Scientific, Waltham, MA, USA), and hygromycin B solution (100 μg/mL) for transfected cells. HEK-hLAT1 and HEK-MOCK cells (passages 7–20) were seeded at a density of 5 × 10^5 cells/wells onto 24-well plates. The cells were used in the characterization, competition, and uptake studies 2 days after seeding. MCF-7 cells were seeded at a density of 1 × 10^5 and were used in the competition studies 1 day after seeding. The culture medium was removed, and the cells were washed with prewarmed Hanks’ balanced salt solution (HBSS; 125 mM NaCl, 4.8 mM KCl, 1.2 mM MgSO4, 1.2 mM KH2PO4, 1.3 mM CaCl2, 5.6 mM D-glucose, and 25 mM HEPES, pH 7.4). The cells were then incubated with HBSS at 37 °C for 10 min before the experiments.
as §1

Data set [3] can be described thus: Conversion of ester conjugate in 0.1 M NaOH (sample lysis). Format: physicochemical. The protocol: For compound 9, the LLOQ was 0.05 nM with good linearity (R^2 > 0.983).[34] For the compounds 1, 7, and 12, the LLOQ was 12.5 nM, with a linear range of 12.5–2500 nM, and for 11, the LLOQ was 6.3 nM, over the range of 6.3–6250 nM.[28] For 10, the calibration curve was linear with a LLOQ of 1 ng/mL (accuracy ±15%), respectively.[26] For compounds 2–5, the LLOQ was 5.0 nM.[29] Methods were also selective, accurate (RSD < 15%), and precise (RSD < 15%) over the range of 5.0–1000 nM for 5 and for compounds 2–4 5.0–2000 nM. For compound 6, the LLOQ was 10 pmol/g.[33] Ketoprofen was linear with a range of 0.25–25 ng/mL, while compound 8 was completely converted to ketoprofen in 0.1 M NaOH within 30 min.

T2 sequence (Q01650 whole entry): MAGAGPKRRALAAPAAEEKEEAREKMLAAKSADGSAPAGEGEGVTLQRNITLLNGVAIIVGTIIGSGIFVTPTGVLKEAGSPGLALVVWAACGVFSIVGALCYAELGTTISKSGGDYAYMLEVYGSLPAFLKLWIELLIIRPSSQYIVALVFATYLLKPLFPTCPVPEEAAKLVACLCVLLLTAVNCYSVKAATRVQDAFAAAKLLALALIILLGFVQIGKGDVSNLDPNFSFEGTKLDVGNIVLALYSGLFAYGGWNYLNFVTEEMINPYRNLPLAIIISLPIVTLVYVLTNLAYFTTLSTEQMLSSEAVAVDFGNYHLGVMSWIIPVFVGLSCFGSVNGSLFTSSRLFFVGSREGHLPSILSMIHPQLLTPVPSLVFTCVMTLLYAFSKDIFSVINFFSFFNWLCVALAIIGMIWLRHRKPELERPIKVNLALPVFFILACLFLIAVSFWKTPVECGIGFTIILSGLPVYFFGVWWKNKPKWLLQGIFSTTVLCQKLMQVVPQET
T2 sequence (P08195 102-630 partner): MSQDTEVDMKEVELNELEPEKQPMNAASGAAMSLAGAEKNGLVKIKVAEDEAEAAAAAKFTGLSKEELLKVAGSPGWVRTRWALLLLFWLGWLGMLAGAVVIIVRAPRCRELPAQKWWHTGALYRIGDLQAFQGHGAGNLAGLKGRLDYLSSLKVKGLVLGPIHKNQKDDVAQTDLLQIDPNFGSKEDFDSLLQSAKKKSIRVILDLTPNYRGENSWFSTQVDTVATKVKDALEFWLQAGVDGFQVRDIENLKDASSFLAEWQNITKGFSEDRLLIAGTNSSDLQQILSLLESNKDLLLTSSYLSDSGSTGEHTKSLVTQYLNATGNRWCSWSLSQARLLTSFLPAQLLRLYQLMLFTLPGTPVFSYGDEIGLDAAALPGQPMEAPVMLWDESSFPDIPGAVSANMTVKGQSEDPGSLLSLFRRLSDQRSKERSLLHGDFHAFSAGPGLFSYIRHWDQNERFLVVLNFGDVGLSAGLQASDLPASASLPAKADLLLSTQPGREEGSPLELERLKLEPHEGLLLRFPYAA
T1 sequence (Q01650 whole entry): as the sequence (Q01650 whole entry) above
T1 sequence (P08195 102-630 partner): as the sequence (P08195 102-630 partner) above

Take `CC(C(=O)Oc1cccc(C[C@H](N)C(=O)O)c1)c1cccc(C(=O)c2ccccc2)c1` (some centres unmarked) [Compound 8]: the inhibition at 50 µM in data set [1] (50 μM compound, read-out: [14C]-L-Leucine uptake inhibition % (50μM)) amounted to 24 ± 2.3%; in data set [2] (MCF7, MCF-7 cells, 50 μM compound), 83 ± 0.9%. In addition, the figures for the IC50 in data set [1] (read-out: IC50 of [14C]-L-leucine uptake) and in data set [2] (MCF-7 cells) were more than 100 µM and 0.4 ± 0.08 µM, respectively. Besides, in data set [3], the “time to complete conversion to ketoprofen” value was not above 30 min.

Usually inhibition stands for the drop in the measured response relative to a control, in per cent. One may read the IC50 as the concentration needed to halve the response being measured.
